Test results published in article PMC8880564, “Design, Synthesis, and Biological Evaluation of a Novel VEGFR-2 Inhibitor Based on a 1,2,5-Oxadiazole-2-Oxide Scaffold with MAPK Signaling Pathway Inhibition” (Pharmaceuticals, 2022).

Columns and labels:
Assay in all cases: NCI-60 one-dose SRB screening
Assay type in all cases: cell-based
COLO 205 = details: Homo sapiens, COLO 205, Colon Cancer, 10 µM one dose, 48 h, read-out: growth percentage
NCI-H460 = details: Homo sapiens, NCI-H460, Non-Small Cell Lung Cancer, 10 µM one dose, 48 h, read-out: growth percentage
MDA-MB-231/ATCC = details: Homo sapiens, Breast Cancer, 10 µM one dose, 48 h, read-out: growth percentage
RXF 393 = details: Homo sapiens, RXF 393, Renal Cancer, 10 µM one dose, 48 h, read-out: growth percentage
RPMI-8226 = details: Homo sapiens, RPMI-8226, Leukemia, 10 µM one dose, 48 h, read-out: growth percentage
NCI-H23 = details: Homo sapiens, NCI-H23, Non-Small Cell Lung Cancer, 10 µM one dose, 48 h, read-out: growth percentage
SR = details: Homo sapiens, Leukemia, 10 µM one dose, 48 h, read-out: growth percentage
SF-539 = details: Homo sapiens, SF-539, CNS Cancer, 10 µM one dose, 48 h, read-out: growth percentage
EKVX = details: Homo sapiens, Non-Small Cell Lung Cancer, 10 µM one dose, 48 h, read-out: growth percentage
CCRF-CEM = details: Homo sapiens, Leukemia, 10 µM one dose, 48 h, read-out: growth percentage
SF-268 = details: Homo sapiens, SF-268, CNS Cancer, 10 µM one dose, 48 h, read-out: growth percentage
U251 = details: Homo sapiens, U-251, U251, CNS Cancer, 10 µM one dose, 48 h, read-out: growth percentage
NCI-H226 = details: Homo sapiens, NCI-H226, Non-Small Cell Lung Cancer, 10 µM one dose, 48 h, read-out: growth percentage
HS 578T = details: Homo sapiens, Breast Cancer, 10 µM one dose, 48 h, read-out: growth percentage
K-562 = details: Homo sapiens, K562, K-562, Leukemia, 10 µM one dose, 48 h, read-out: growth percentage
HCC-2998 = details: Homo sapiens, HCC-2998, Colon Cancer, 10 µM one dose, 48 h, read-out: growth percentage
KM12 = details: Homo sapiens, KM12, Colon Cancer, 10 µM one dose, 48 h, read-out: growth percentage
OVCAR-3 = details: Homo sapiens, OVCAR-3, Ovarian Cancer, 10 µM one dose, 48 h, read-out: growth percentage
UO-31 = details: Homo sapiens, UO-31, Renal Cancer, 10 µM one dose, 48 h, read-out: growth percentage
DU-145 = details: Homo sapiens, DU-145, Prostate Cancer, 10 µM one dose, 48 h, read-out: growth percentage
UACC-62 = details: Homo sapiens, UACC-62, Melanoma, 10 µM one dose, 48 h, read-out: growth percentage
CAKI-1 = details: Homo sapiens, CAKI-1, Renal Cancer, 10 µM one dose, 48 h, read-out: growth percentage

In the case of `[O-][n+]1onc(-c2ccccc2)c1CNc1ccc(Nc2nc(C(F)(F)F)nc3c2cnn3-c2ccc(Br)cc2)cc1` [12b, 3-(((4-((1-(4-bromophenyl)-6-(trifluoromethyl)-1H-pyrazolo[3,4-d]pyrimidin-4-yl)amino)phenyl)amino)methyl)-4-phenyl-1,2,5-oxadiazole 2-oxide], the activity at 10 µM (COLO 205) is reported as 74.6%, the activity at 10 µM (NCI-H460) is reported as 35.6% and the activity at 10 µM (MDA-MB-231/ATCC) is reported as 69.7%. It also gave an activity at 10 µM (RXF 393) of 51.2%, an activity at 10 µM (RPMI-8226) of 73.8% and an activity at 10 µM (NCI-H23) of 72.4%. It also gave an activity at 10 µM (SR) of 43.5%, an activity at 10 µM (SF-539) of 68.3% and an activity at 10 µM (EKVX) of 65.4%. It also gave an activity at 10 µM (CCRF-CEM) of 48.5%, an activity at 10 µM (SF-268) of 65% and an activity at 10 µM (U251) of 73.2%. For the same compound, the activity at 10 µM (NCI-H226) was 77%, the activity at 10 µM (HS 578T) was 77.6% and the activity at 10 µM (K-562) was 22.8%. For the same compound, the activity at 10 µM (HCC-2998) was 75.1%, the activity at 10 µM (KM12) was 41.2% and the activity at 10 µM (OVCAR-3) was 92%. For the same compound, the activity at 10 µM (UO-31) was 43.4%, the activity at 10 µM (DU-145) was 70.8% and the activity at 10 µM (UACC-62) was 64.9%. For the same compound, the activity at 10 µM (CAKI-1) was 31.1%.
`Cc1nn(-c2ccc(Br)cc2)c2nc(C(F)(F)F)nc(Nc3ccc(NCc4c(-c5ccccc5)no[n+]4[O-])cc3)c12` [12c, 3-(((4-((1-(4-bromophenyl)-3-methyl-6-(trifluoromethyl)-1H-pyrazolo[3,4-d]pyrimidin-4-yl)amino)phenyl)amino)methyl)-4-phenyl-1,2,5-oxadiazole 2-oxide] showed an activity at 10 µM (COLO 205) of 73.2%, an activity at 10 µM (NCI-H460) of 46.6% and an activity at 10 µM (MDA-MB-231/ATCC) of 65.9%. The activity at 10 µM (RXF 393) was 89.2%, the activity at 10 µM (RPMI-8226) was 91.1% and the activity at 10 µM (NCI-H23) was 91.6%. It also gave an activity at 10 µM (SR) of 55.5%, an activity at 10 µM (SF-539) of 59.4% and an activity at 10 µM (EKVX) of 71.1%. It also gave an activity at 10 µM (CCRF-CEM) of 60.4%, an activity at 10 µM (SF-268) of 73.2% and an activity at 10 µM (U251) of 54.1%. The activity at 10 µM (NCI-H226) was 75%, the activity at 10 µM (HS 578T) was 83.2% and the activity at 10 µM (K-562) was 51.4%. It also gave an activity at 10 µM (HCC-2998) of 96.1%, an activity at 10 µM (KM12) of 74.3% and an activity at 10 µM (OVCAR-3) of 91.6%. It also gave an activity at 10 µM (UO-31) of 50.3%, an activity at 10 µM (DU-145) of 84.8% and an activity at 10 µM (UACC-62) of 62.5%. It also gave an activity at 10 µM (CAKI-1) of 55%.
With `O=c1[nH]c(CCl)nc2c1cnn2-c1ccccc1` [13a] the activity at 10 µM (COLO 205) was 114%, the activity at 10 µM (NCI-H460) was 101% and the activity at 10 µM (MDA-MB-231/ATCC) was 101%. For the same compound, the activity at 10 µM (RXF 393) was 94.1%, the activity at 10 µM (RPMI-8226) was 82.5% and the activity at 10 µM (NCI-H23) was 101%. For the same compound, the activity at 10 µM (SR) was 87.1%, the activity at 10 µM (SF-539) was 97.1% and the activity at 10 µM (EKVX) was 100%. It also gave an activity at 10 µM (CCRF-CEM) of 101%, an activity at 10 µM (SF-268) of 99.9% and an activity at 10 µM (U251) of 93.7%. It also gave an activity at 10 µM (NCI-H226) of 110%, an activity at 10 µM (HS 578T) of 111% and an activity at 10 µM (K-562) of 87.5%. The activity at 10 µM (HCC-2998) was 105%, the activity at 10 µM (KM12) was 101% and the activity at 10 µM (OVCAR-3) was 95.9%. It also gave an activity at 10 µM (UO-31) of -20.9%, an activity at 10 µM (DU-145) of 98.6% and an activity at 10 µM (UACC-62) of 96.2%. The activity at 10 µM (CAKI-1) was 97.6%.
Work on `O=c1[nH]c(CNc2ccc(NCc3c(-c4ccccc4)no[n+]3[O-])cc2)nc2c1cnn2-c1ccccc1` [14a, 3-(((4-(((4-oxo-1-phenyl-4,5-dihydro-1H-pyrazolo[3,4-d]pyrimidin-6-yl)methyl)amino)phenyl)amino)methyl)-4-phenyl-1,2,5-oxadiazole 2-oxide] yielded an activity at 10 µM (COLO 205) of 101%, an activity at 10 µM (NCI-H460) of 64.2% and an activity at 10 µM (MDA-MB-231/ATCC) of 72.5%. The activity at 10 µM (RXF 393) was 98.4%, the activity at 10 µM (RPMI-8226) was 61.9% and the activity at 10 µM (NCI-H23) was 63.4%. It also gave an activity at 10 µM (SR) of 45.7%, an activity at 10 µM (SF-539) of 92.6% and an activity at 10 µM (EKVX) of 51.3%. It also gave an activity at 10 µM (CCRF-CEM) of 57.9%, an activity at 10 µM (SF-268) of 73.5% and an activity at 10 µM (U251) of 76.1%. It also gave an activity at 10 µM (NCI-H226) of 77.2%, an activity at 10 µM (HS 578T) of 85.8% and an activity at 10 µM (K-562) of 49.8%. The activity at 10 µM (HCC-2998) was 84.4%, the activity at 10 µM (KM12) was 73.3% and the activity at 10 µM (OVCAR-3) was 73.5%. The activity at 10 µM (UO-31) was 55.9%, the activity at 10 µM (DU-145) was 74.6% and the activity at 10 µM (UACC-62) was 60.6%. It also gave an activity at 10 µM (CAKI-1) of 55.1%.
